Measurements from patent US20260193602A1, “CULTURE MEDIUM COMPOSITION” (AJINOMOTO CO., INC., priority 2023, published 2026).

Columns and labels:
[1] = tested on: HEK293 (Viral Production Cells 2.0) producing AAV8; assay: Production of AAV in HEK293 in suspension culture system (AAV8 genome titer by real-time PCR, viral particles by ELISA, full capsid ratio); type: cell-based, human
[2] = tested on: HEK293 2.sus producing Human adenovirus 32; conditions: Example 6; CDM4HEK293 with or without β-alanine; MOI 0.1
Protocol: The entire volume is placed in a 50 ml tube, 29 mL of glutamine-containing 293 SFM II is added thereto and the cells are suspended. 5 mL of the cell suspension is placed in a Petri dish and culturing with shaking (50 rpm) is performed in a CO2 incubator (temperature setting: 37° C., CO2 concentration: 5%, model: MCO-170AICUV-PJ, Panasonic Healthcare Co., Ltd.) for 2-3 days. • (4) After culturing, the culture solution is recovered and transferred to a 15 mL centrifuge tube. • (5) Centrifugation is performed for 5 min (1000 rpm, 190×g, 24° C.) and the supernatant is removed. • (6) 1 ML of glutamine-containing 293 SFM II is added to the 15 mL centrifuge tube and the cells are resuspended. The cell number is measured using a hemocytometer and glutamine-containing 293 SFM II is added to 3×10^5 cells/mL. […] The cell number is measured using a hemocytometer and the culture solution is added to 3×10^5 cells/mL. […]

| Structure (SMILES) | AAV8 genome titer (relative) ([1]; Example 4, spermidine trihydrochloride final concentration 30 μM or 100 μM, FIG. 6) | full capsid ratio (relative) ([1]; Example 4, spermidine trihydrochloride final concentration 30 μM or 100 μM, FIG. 7) | AAV8 genome titer (relative) ([1]; Example 5, spermidine trihydrochloride 200 μM alone, FIG. 8) | AAV8 genome titer (relative) ([1]; Example 1, β-alanine final concentration 100 μM, vs medium without β-alanine = 100%, FIG. 1) | full capsid ratio (relative) ([1]; Example 1, β-alanine final concentration 100 μM, vs medium without β-alanine = 100%, FIG. 2) | AAV8 genome titer (relative) ([1]; Example 2, β-alanine final concentration 100 μM, FIG. 3) | AAV8 genome titer (relative) ([1]; Example 2, β-alanine final concentration 300 μM, FIG. 3) | virus count (capsid count (relative)) ([1]; Example 3, β-alanine final concentration 300 μM, FIG. 4) | full capsid ratio (relative) ([1]; Example 3, β-alanine final concentration 300 μM, FIG. 5) | AAV8 genome titer (relative) ([1]; Example 5, β-alanine 300 μM alone, FIG. 8) | adenovirus titer [2] |
| --- | --- | --- | --- | --- | --- | --- | --- | --- | --- | --- | --- |
| Cl.Cl.Cl.NCCCCNCCCN [spermidine trihydrochloride] | improvements | improvements | improved |  |  |  |  |  |  |  |  |
| NCCC(=O)O [β-alanine] |  |  |  | improvements | improvements | improvement | improvement | increase | improvement | improved | Improvement |
